Measurements: patent US11390631B1, “Benzodiazepine derivatives as RSV inhibitors” (priority 2015, dated 2022)
pEC50: −log10 of the molar value.

system: Human RSV-A (“Long” strain); assay: RSV-A assay: inhibition of cytopathic effect in Hep-2 cells, ATPlite readout; type: cell-based, Human respiratory syncytial virus (HRSV); conditions: Hep-2 cells, MOI 0.1, 5-day incubation, ATPlite; read-out: Human RSV-A (“Long” strain) EC50
Method in brief: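 Cytopathic-effect protection was read as ATP content (ATPlite luminescence) after a 5-day incubation. Setup: Hep-2 cells at 8,000 per well, RSV-A Long at MOI 0.1, 2-fold serial compound dilutions in duplicate. Cytotoxicity (CC50) was measured on an identical uninfected plate run in parallel.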

Compound	pEC50
COC[C@H]1C[C@@H]1c1sc(C(F)(F)F)nc1-c1nnc(N[C@H]2N=C(c3ccccc3)c3ccccc3NC2=O)o1 [Example 395]	< 6.10

same assay, conditions: human respiratory syncytial virus, HEp-2, 120 h, read-out: Human RSV-A (“Long” strain) EC50

Compound	pEC50
N#Cc1ccc(-c2nnc(N[C@H]3N=C(c4ccccc4)c4ccccc4NC3=O)o2)c(-c2ccsc2)c1 [Example 309]	< 6.10
COCCn1nccc1-c1nnc(N[C@H]2N=C(c3ccccc3)c3ccccc3NC2=O)o1 [Example 310]	< 6.10
C#Cc1cnc(-c2nnc(N[C@H]3N=C(c4ccccc4)c4ccccc4NC3=O)o2)c(N2CCOCC2)c1 [Example 311]	> 6.40
O=C1Nc2ccccc2C(c2ccccc2)=N[C@@H]1Nc1nnc(-c2ncc(C3=CCCCC3)cc2N2CCOCC2)o1 [Example 312]	6.10 to 6.40
O=C1Nc2ccccc2C(c2ccccc2)=N[C@@H]1Nc1nnc(-c2ncc(C3CCCCC3)cc2N2CCOCC2)o1 [Example 313]	> 6.40
O=C1Nc2ccccc2C(c2ccccc2)=N[C@@H]1Nc1nnc(-c2ncc(N3CCCC3)cc2N2CCOCC2)o1 [Example 314]	> 6.40
O=C1Nc2ccccc2C(c2ccccc2)=N[C@@H]1Nc1nnc(-c2ncc3ccccc3c2N2CCOCC2)o1 [Example 316]	< 6.10
O=C1Nc2ccccc2C(c2ccccc2)=N[C@@H]1Nc1nnc(-c2ccc(N3CCCC3)cc2N2CCOCC2)o1 [Example 317]	> 6.40
O=C1Nc2ccccc2C(c2ccccc2)=N[C@@H]1Nc1nnc(-c2nc(C3CC3)ccc2N2CCOCC2)o1 [Example 318]	> 6.40
N#Cc1ccc(-c2nnc(N[C@H]3N=C(c4ccccc4)c4ccccc4NC3=O)o2)c(-c2ccoc2)c1 [Example 319]	< 6.10
Cc1noc(C)c1-c1cc(C#N)ccc1-c1nnc(N[C@H]2N=C(c3ccccc3)c3ccccc3NC2=O)o1 [Example 320]	< 6.10
O=C1Nc2ccccc2C(c2ccccc2)=N[C@@H]1Nc1nnc(-c2ncc(C3CC3)cc2N2CC3CCC(C2)O3)o1 [Example 321]	> 6.40
N#Cc1cc(N2CCOCC2)c(-c2nnc(N[C@H]3N=C(c4ccccc4)c4ccccc4NC3=O)o2)s1 [Example 323]	> 6.40
N#Cc1ccc(N2CCOCC2)c(-c2nnc(N[C@H]3N=C(c4ccccc4)c4ccccc4NC3=O)o2)n1 [Example 324]	> 6.40
N#Cc1cnc(-c2nnc(N[C@H]3N=C(c4ccccc4)c4ccccc4NC3=O)o2)c(N2CCOCC2)c1 [Example 325]	> 6.40
C[C@@H]1CN(c2cc(C#N)cnc2-c2nnc(N[C@H]3N=C(c4ccccc4)c4ccccc4NC3=O)o2)CCO1 [Example 326]	6.10 to 6.40
CN1CCN(c2cc(C(F)(F)F)cnc2-c2nnc(N[C@H]3N=C(c4ccccc4)c4ccccc4NC3=O)o2)CC1 [Example 327]	6.10 to 6.40
O=C1Nc2ccccc2C(c2ccccc2)=N[C@@H]1Nc1nnc(-c2ncc(C(F)(F)F)cc2N2CCC(O)CC2)o1 [Example 328]	< 6.10
C[C@H]1CN(c2cc(C#N)cnc2-c2nnc(N[C@H]3N=C(c4ccccc4)c4ccccc4NC3=O)o2)CCO1 [Example 329]	> 6.40
Cc1cc(-c2nnc(N[C@H]3N=C(c4ccccc4)c4ccccc4NC3=O)o2)c(N2CCOCC2)s1 [Example 330]	> 6.40
N#CCNc1cc(C(F)(F)F)cnc1-c1nnc(N[C@H]2N=C(c3ccccc3)c3ccccc3NC2=O)o1 [Example 331]	< 6.10
CS(=O)(=O)c1cnc(-c2nnc(N[C@H]3N=C(c4ccccc4)c4ccccc4NC3=O)o2)c(N2CCOCC2)c1 [Example 332]	< 6.10

Compound	pEC50
N#Cc1cnc(-c2nnc(N[C@H]3N=C(c4ccccc4)c4ccccc4NC3=O)o2)c(N2C3CCC2COC3)c1 [Example 333]	6.10 to 6.40
COCCNc1sc(C)nc1-c1nnc(N[C@H]2N=C(c3ccccc3)c3ccccc3NC2=O)o1 [Example 335]	> 6.40
Cc1nc(-c2nnc(N[C@H]3N=C(c4ccccc4)c4ccccc4NC3=O)o2)c(N2CCOCC2)o1 [Example 337]	> 6.40
COc1ccccc1-c1nc(-c2nnc(N[C@H]3N=C(c4ccccc4)c4ccccc4NC3=O)o2)c(N2CCOCC2)s1 [Example 342]	> 6.40
Cc1nc(-c2nnc(N[C@H]3N=C(c4ccccc4)c4ccccc4NC3=O)o2)cs1 [Example 343]	< 6.10
Cc1nc(-c2nnc(N[C@H]3N=C(c4ccccc4)c4ccccc4NC3=O)o2)c(Cl)s1 [Example 344]	< 6.10
Cc1nc(-c2nnc(N[C@H]3N=C(c4ccccc4)c4ccccc4NC3=O)o2)c(C2=CCOCC2)s1 [Example 345, (S)-3-((5-(5-(3,6-dihydro-2H-pyran-4-yl)-2-methylthiazol-4-yl)-1,3,4-oxadiazol-2-yl)amino)-5-phenyl-1,3-dihydro-2H-benzo[e][1,4]diazepin-2-one]	> 6.40
Cc1nc(-c2nnc(N[C@H]3N=C(c4ccccc4)c4ccccc4NC3=O)o2)c(C2CCOCC2)s1 [Example 346, (S)-3-((5-(2-methyl-5-(tetrahydro-2H-pyran-4-yl)thiazol-4-yl)-1,3,4-oxadiazol-2-yl)amino)-5-phenyl-1,3-dihydro-2H-benzo[e][1,4]diazepin-2-one]	> 6.40
O=C1Nc2ccccc2C(c2ccccc2)=N[C@@H]1Nc1nnc(-c2ncsc2C2=CCOCC2)o1 [Example 347]	> 6.40
O=C1Nc2ccccc2C(c2ccccc2)=N[C@@H]1Nc1nnc(-c2occc2N2CCOCC2)o1 [Example 348]	> 6.40
O=C1Nc2ccccc2C(c2ccccc2)=N[C@@H]1Nc1nnc(-c2ccnn2-c2ccccc2)o1 [Example 349]	< 6.10
O=C1Nc2ccccc2C(c2ccccc2)=N[C@@H]1Nc1nnc(-c2cnn(-c3ccccc3)c2)o1 [Example 350]	6.10 to 6.40
O=C1Nc2ccccc2C(c2ccccc2)=NC1Nc1nnc(-c2ccccc2C2=CCOCC2)o1 (stereo not shown) [Example 353, 3-((5-(2-(3,6-dihydro-2H-pyran-4-yl)phenyl)-1,3,4-oxadiazol-2-yl)amino)-5-phenyl-1,3-dihydro-2H-benzo[e][1,4]diazepin-2-one]	< 6.10
O=C1Nc2ccccc2C(c2ccccc2)=NC1Nc1nnc(-c2ccccc2C2CCOCC2)o1 (stereo not shown) [Example 354]	< 6.10
O=C1Nc2c(F)cccc2C(c2ccccc2)=N[C@H]1Nc1nnc(-c2ccccc2N2CCOCC2)o1 [Example 355b]	< 6.10
O=C1Nc2c(F)cccc2C(c2ccccc2)=NC1Nc1nnc(-c2ccc(N3CCOCC3)cc2)o1 (stereo not shown) [Example 356]	6.10 to 6.40
N#Cc1cnc(-c2nnc(N[C@H]3N=C(c4ccccc4)c4cccc(F)c4NC3=O)o2)c(N2CCOCC2)c1 [Example 361]	> 6.40
O=C1Nc2c(Cl)cccc2C(c2ccccc2)=NC1Nc1nnc(-c2ccccc2N2CCOCC2)o1 (stereo not shown) [Example 362]	< 6.10
O=C1Nc2ccccc2C(c2ccccc2)=NC1Nc1nnc(-c2ccc(F)cc2)[nH]1 (stereo not shown) [Example 363]	< 6.10
N#Cc1ccc(-c2nnc(NC3N=C(c4ccccc4)c4ccccc4NC3=O)[nH]2)cc1 (stereo not shown) [Example 365]	6.10 to 6.40
O=C1Nc2ccccc2C(c2ccccc2)=NC1Nc1nnc(-c2ccncc2)[nH]1 (stereo not shown) [Example 366]	< 6.10
O=C1Nc2ccccc2C(c2ccccc2)=NC1Nc1nnc(-c2ccccc2N2CCOCC2)[nH]1 (stereo not shown) [Example 367]	< 6.10

Compound	pEC50
N#Cc1ccc(-c2cnc(NC3N=C(c4ccccc4)c4ccccc4NC3=O)o2)cc1 (stereo not shown) [Example 368]	6.10 to 6.40
O=C1Nc2ccccc2C(c2ccccc2)=NC1Nc1ncc(-c2ccc(F)cc2)o1 (stereo not shown) [Example 369]	< 6.10
O=C1Nc2ccccc2C(c2ccccc2)=NC1Nc1ncc(-c2ccc(Br)cc2)o1 (stereo not shown) [Example 370]	< 6.10
O=C1Nc2ccccc2C(c2ccccc2)=NC1Nc1ncc(-c2ccccc2)cn1 (stereo not shown) [Example 371]	< 6.10
O=C1Nc2ccccc2C(c2ccccc2)=NC1Nc1nnc(C2CC2)[nH]1 (stereo not shown) [Example 372]	< 6.10
O=C1Nc2ccccc2C(c2ccccc2)=NC1Nc1cnc(-c2ccc(F)cc2)cn1 (stereo not shown) [Example 373]	< 6.10
O=C1Nc2ccccc2C(c2ccccc2)=NC1Nc1ccc(-c2ccc(F)cc2)nn1 (stereo not shown) [Example 374]	< 6.10
O=C1Nc2ccccc2C(c2ccccc2)=NC1Nc1ccc(-c2ccncc2)nn1 (stereo not shown) [Example 375]	< 6.10
COc1ccc(-c2ccc(NC3N=C(c4ccccc4)c4ccccc4NC3=O)nn2)cc1 (stereo not shown) [Example 376]	< 6.10
O=C1Nc2ccccc2C(c2ccccc2)=NC1Nc1ccc(-c2ccccc2N2CCOCC2)nn1 (stereo not shown) [Example 378]	< 6.10
O=C1Nc2ccccc2C(c2ccccc2F)=NC1Nc1nnc(-c2ccc(F)cc2)o1 (stereo not shown) [Example 379]	< 6.10
O=C1Nc2ccccc2C(c2cccc(F)c2)=NC1Nc1nnc(-c2ccc(F)cc2)o1 (stereo not shown) [Example 380]	6.10 to 6.40
N#Cc1cccc(C2=NC(Nc3nnc(-c4ccc(F)cc4)o3)C(=O)Nc3ccccc32)c1 (stereo not shown) [Example 381]	< 6.10
O=C1Nc2ccccc2C(c2ccc(F)cc2)=NC1Nc1nnc(-c2ccc(F)cc2)o1 (stereo not shown) [Example 382]	< 6.10
O=C1Nc2ccccc2C(c2ccccc2)=N[C@@H]1Nc1nnc(-c2cc(C(F)(F)F)sc2N2CCOCC2)o1 [Example 383]	> 6.40
O=C1Nc2ccccc2C(c2ccccc2)=N[C@@H]1Nc1nnc(-c2cc(C3CC3)sc2N2CCOCC2)o1 [Example 384]	> 6.40
O=C1Nc2ccccc2C(c2ccccc2)=N[C@@H]1Nc1nnc(-c2nc(-c3ccc(F)cn3)sc2N2CCOCC2)o1 [Example 389]	> 6.40
O=C1Nc2ccccc2C(c2ccccc2)=N[C@@H]1Nc1nnc(-c2nc(-c3ccc(C(F)(F)F)nc3)sc2N2CCOCC2)o1 [Example 390]	> 6.40
COCCCc1sc(C(F)(F)F)nc1-c1nnc(N[C@H]2N=C(c3ccccc3)c3ccccc3NC2=O)o1 [Example 396]	< 6.10
Cn1cc(-c2nc(-c3nnc(N[C@H]4N=C(c5ccccc5)c5ccccc5NC4=O)o3)c(N3CCOCC3)s2)cn1 [Example 399]	> 6.40
O=C1Nc2ccccc2C(c2ccccc2)=NC1Nc1nnc(-c2nc(Br)sc2N2CCOCC2)o1 (stereo not shown) [Example 400]	> 6.40
CCn1cc(-c2nnc(N[C@H]3N=C(c4ccccc4)c4ccccc4NC3=O)o2)c(N2CCOCC2)n1 [Example 401]	> 6.40
